According to paper PMC6145916, “Interaction of mitochondrial fission factor with dynamin related protein 1 governs physiological mitochondrial function in vivo” (Scientific Reports, 2018):
Where no end group is shown, it is not given here.

Legend:
SH-SY5Y cells [1] = assay: Mitochondrial membrane potential (TMRM), SH-SY5Y; type: cell-based, human; conditions: overnight treatment, normalized to no peptide; 3 independent experiments
Procedure: (§1) Represented Western blot is cropped from a full blot shown in the Expanded Western Blots section of the Supplementary Information. […] Hoechst 33342 is shown in blue and Tom20 in green (n = 3, 10 images each). Below, quantification of the form factor (degree of branching) and major axis length (length of mitochondria). At least 6,000 mitochondrial fragments were measured for each condition. Mitochondrial reactive oxygen species (ROS) production (MitoSox Red) (c) and mitochondrial membrane potential (TMRM) (d) after overnight treatment with indicated concentrations of peptide or FCCP. Data are from 3 independent experiments per condition normalized to the average no peptide value. (e) Relative mitochondrial ROS (MitoSox Red) signal in GFP positive cells expressing full-length or alanine-substituted P259 at indicated amino acids after two days of transfection. Values are normalized to a GFP empty vector (n = 3, with 3 replicates). […] Data are mean ± s.e.
(§2) Following treatment, cells were washed with treatment media.
(§3) The Cy5 filter was used to autofocus on the mitochondria plane. […] MitoROS was calculated as the average MitoSox signal per cell. The mitochondrial membrane potential was calculated as the average TMRM signal in the mitochondrial mask. […]
(§4) calculated as the average MitoSox signal per cell. […]

MFF knockout MEFs [2] = assay: Mitochondrial ROS (MitoSox), MFF knockout MEFs; type: cell-based, mouse; conditions: 4 µM P259 daily for three days, vs no peptide; 3 independent experiments, three technical replicates; ns p = 0.23
Text: (§5) Data are of 3 independent experiments with the whiskers calculated by the Turkey method. e. […]
production in an Mff -dependent manner. Mitochondrial reactive oxygen species production […]
treatment in each cell line. […]
(§6) determined by an unpaired, two -tailed t test). g. […]
control (no peptide treatment). Data are mean ± s.e. from 3 independent experiments.
Mitochondrial reactive oxygen species determination […]
and 1% penicillin-streptomycin solution (Corning, NY, USA). […]
(§7) and without phenol red. […] After incubation
(§8) HEPES, and without phenol red. […]
(§9) epifluorescence microscope with a 10X objective (Keyence). The Cy5 filter (Keyence) was used to autofocus on the mitochondria plane. […]
as §4

MFF knockout MEFs [3] = assay: Mitochondrial membrane potential (TMRM), MFF knockout MEFs; type: cell-based, mouse; conditions: 20 µM P259 overnight, vs no peptide; 3 independent experiments, three technical replicates; ns p = 0.93
Procedure: as §5, §6
control (no peptide treatment). Data are mean ± s.e. from 3 independent experiments. […]
as §7, §8, §9
Mitochondrial membrane potential determination
After treatment, cells were washed with
Cells were incubated in a 37
°C incubator for 30 minutes. […]

SH-SY5Y cells [4] = assay: Mitochondrial ROS (MitoSox Red), SH-SY5Y; type: cell-based, human; conditions: overnight treatment, normalized to no peptide; 3 independent experiments
Procedure: as §1, §2, §3, §4

wild-type mice = assay: Open-field activity chamber behavior; type: in vivo, mouse; conditions: 3 mg/Kg/day
Text: (a) Quantification of mitochondrial Drp1 content relative to ALDH2 (a mitochondrial matrix enzyme) in the mitochondrial fraction isolated from total brain lysate of wild-type mice (Western blot shown in Fig. S3B) (n = 4 mice). (b) ATP content in brain tissue of wild-type mice (n = 4 mice, 2 replicates). (c) Representative transmission electron microscopy images of the striatum from wild-type mice. […] The first principal component represents 42% of the variation. (f) Local linear embedding dimensionality reduction and visualization of all behaviors collected weekly from TAT- (black) or P259- (purple) treated WT and TAT- (white) treated R6/2 mice over the course of 8 weeks. […] All behavior and survival tests were conducted by an experienced observer who was blinded to the treatment groups. Data are mean ± s.e.
Five-week old R6/2 HD mice and their wild-type littermates (a total of 60 mice) were implanted subcutaneously with a 28-d Alzet osmotic pump with either P259-TAT or TAT control peptide (15 mice per group) to be delivered continuously at a rate of 3 mg/Kg/day, as previously described. All mice were implanted twice for a total of an 8-week treatment. 20 of the WT mice were implanted 3 times for a total of a 12-week treatment at 3 mg/Kg/day. All the experiments were in accordance with protocols approved by the Institutional Animal Care and Use Committee of Stanford University and were performed based on the National Institutes of Health Guide for the Care and Use of Laboratory Animals. All methods were carried out in accordance with the relevant guidelines and regulations. […]
Survival and behavioral mice studies […]
All behavior and […]
survival tests were conducted by an experienced ob server who was blinded to the treatment groups.
Behavioral tests were administered weekly in an open-field activity arena (Med Associate s Inc, St.
Albans, VT. Model ENV-515) equipped with three planes of infrared detectors within a sound-proof chamber (Med Associates Inc., St. Albans, VT. MED-017-027), as described previously.12 Each mouse was placed in a corner of the chamber and was tracked for a period of 15 minutes.
The following activities were recorded: digging duration, grooming duration, climbing duration, rearing duration, seizure frequency, average velocity, active behaviors, total distance moved, jump counts/time, ambulatory counts/distance/time, latency towards center, stereotypic time/counts, resting time, vertical counts/time, and zone entries (center/periphery).
Dimensionality reduction of mouse behavior data
The collection of weekly behavior parameters for wild-type mice treated with P259 or the TAT control was assembled into a vector with a total of 180 behavior parameters per mouse. The top 20% of parameters contributing to treatment classification were filtered by using a combination of the ANOVA F- and the mutual information scores for each behavior. The filtered dataset was normalized and principal component analysis was performed using the Python scikit-learn package. An eigenvector was extracted to determine the contribution of each behavior to the first […]
treated wild-type mice and control-treated R6/2 mice during the eight-week treatment were assembled into a single vector for each mouse. The dataset was normalized and local linear embedding from the Python scikit-learn package was used to reduce the dimensionality of and visualize the behavior parameters.

Wild-type MEF cells = conditions: 4 µM P259, 15 minutes, mito-dendra2 photoconversion; 9 movies over two independent experiments
[5] = 8-week treatment, WT mice, n = 10 mice

For “YGRKKRRQRRRGSGIIQLPEIVVV-NH2 (C-terminus assumed) [P259]”, the mitochondrial membrane potential (SH-SY5Y cells [1]) was “mitochondrial depolarization”, the “effect on mitochondrial ROS levels, Mff knockout MEFs” value (MFF knockout MEFs [2]) was “insensitive” and the “effect on mitochondrial membrane potential, Mff knockout MEFs” value (MFF knockout MEFs [3]) was “insensitive”. For the same substance, the “mitochondrial ROS levels” value (SH-SY5Y cells [4]) was “increase in mitochondrial reactive oxygen species (ROS) levels”, the active mouse behaviors (wild-type mice; [5]) was “less active” and the jumping and climbing (wild-type mice; [5]) was “jumped and climbed less frequently”. For the same substance, the total distance moved (wild-type mice; [5]) was “travelled for a shorter distance”, the “behavior profile, principal component analysis (top 20% of behaviors)” value (wild-type mice; 12 weeks, WT mice, vs TAT) was “successfully separated the behavior profile of P259- and TAT control-treated mice” and the “jump counts/time, periphery-to-center transition, movement counts, stereotypic time” value (wild-type mice; WT mice, tested weekly, 12 weeks, vs TAT-treated mice) was “performed worse than TAT-treated mice”. The “aggregate behavior score (local linear embedding)” value (wild-type mice; weekly over 8 weeks, P259-treated WT vs TAT-treated WT and TAT-treated R6/2 mice) was “intermediate aggregate behavior score between WT- and R6/2 control-treated mice” and the “rate of mitochondrial fusion” value (Wild-type MEF cells) was “did not increase the rate of mitochondrial fusion”.
